Data as given in US11974551B2, “L-serine compositions, methods and uses for treating neurodegenerative diseases and disorders” (priority 2011, dated 2024).
Entries after “also recorded” stand apart in the source; their conditions may differ.

What was measured:
MRC-5 cells [1] = assay: Autofluorescence imaging of cells; format: cell-based, human; details: BMAA 300 μM with L-serine 300 μM, 96 hours
Description: MRC-5 cells were incubated in DMEM supplemented with 300 μM BMAA in the presence or absence of 300 μM L-serine for 96 hours with daily medium changes. Cellular autofluorescence was visualized using an inverted fluorescent microscope (Olympus IX71) as described previously (Dunlop, et al., Biochem J 410, 131-140 (2008)).

MRC-5 cells [2] = assay: Protein-bound non-labeled BMAA in hydrolysed cell proteins by triple quadrupole LC/MS/MS; format: cell-based, human; details: BMAA 250-1000 μM with L-serine 250-1000 μM, or CHX
Description: After incubation with ^3H-BMAA or cold BMAA, cells were washed three times with PBS, lysed by freeze thawing in Triton-X-100 (0.1%) and cell proteins precipitated in TCA (5%). Protein pellets were washed three times with TCA (5%) and hydrolysed in boiling 6 M HCl at 110° C. for 16 hours as previously described (Mondo, et al., Mar Drugs 10, 509-520 (2012)). Protein pellets were freeze-dried and reconstituted in 20 mM HCl. Particulates were removed by centrifugation through […] membranes and the hydrolysate derivatized in AccQ·Tag (Waters Corporation, Australia). Amino acids were separated on a Waters C-18 column using a method and gradient as described previously (Mondo, et al., Mar Drugs 10, 509-520 (2012)). For recovery of radiolabel in hydrolysed samples, fractions were collected manually every minute for 40 minutes, diluted into 5 ml scintillant (Ultima Gold™ scintillant, Perkin Elmer) and disintegrations per minute (DPM) determined by LSC.
To further confirm that BMAA was present in cell proteins and incorporation was inhibited by L-serine, MRC-5 cells were incubated with a range of concentrations of BMAA (250-1000 μM) or BMAA with L-serine (250-1000 μM) and hydrolysed cell proteins were analyzed by tandem mass spectroscopy on a triple quadrupole LC/MS/MS. […]

SH-SY5Y cells = assay: Annexin V binding (apoptosis) by flow cytometry; format: cell-based, human; details: 500 μM BMAA, co-incubation with CHX 2 μg/mL or L-serine 50 μM
Description: Late-stage apoptosis or necrosis was measured by simultaneous staining with propidium iodide and Annexin V using the BD Pharmingen™ Annexin V—FITC apoptosis detection kit and flow cytometry performed as described previously (Dunlop, et al., Biochem J 435, 207-216 (2010)).

Drosophila fruit flies = assay: Fruit fly feeding: misincorporation of BMAA into proteins by LC/MS/MS; format: in vivo, Drosophila melanogaster; details: media with 25 mM BMAA and 25 mM L-Serine vs 25 mM BMAA, three days of feeding
Description: Thirty flies were from each treatment were weighed and sonicated (Fisher Scientific sonic dismembrator model 100; 2 watts for 30 secs) in 10% trichloroacetic acid (TCA 72 μg/μl). TCA extraction was completed in two steps 20 h at 4° C. using one half the TCA volume followed by centrifugation ([…] for 3 min, Labnet Spectrafuge™ 16M microcentrifuge) and removal of supernatant. This was followed by a second sonication and extraction, 5 hours at room temperature using an equal volume of TCA, followed by centrifugation and removal of supernatant. The supernatants were pooled (with the exception of 50 μl removed from the last extraction) and centrifuge filtered (0.22 μm Ultrafree®-MC, Millipore). The remaining protein pellet was transferred to a glass vial and hydrolyzed in 6 M HCl for 16 hours at 110° C. (58 μg/μl). […] Extracts were diluted and derivatized with 6-aminoquinolyl-N-hydroxysuccinimidyl carbamate (AQC) and analyzed by LC-MS/MS.
6-Aminoquinolyl-N-hydroxysuccinimidyl carbamate derivates (AQC Waters AccQTag reagent, P/N WAT052880) were analyzed using a triple quadrupole instrument (Thermo Scientific Finnigan TSQ Quantum Ultra, San Jose, CA) after separation by a Waters Acquity-UHPLC system with a Binary Solvent Manager, Sample Manager and a Waters AccQTag Ultra column (part#186003837, 2.1×100 mm) at 55° C. […]

N[C@@H](CO)C(=O)O [L-serine]
effect on BMAA-induced formation of autofluorescent bodies (MRC-5 cells [1]): prevented the formation of autofluorescent bodies | effect on incorporation of non-labeled BMAA into cell proteins (MRC-5 cells [2]): inhibited | effect on BMAA-induced Annexin V binding / apoptosis (SH-SY5Y cells): abrogated; also recorded: significantly reduced | effect on amount of BMAA misincorporation into proteins (Drosophila fruit flies): reduces BMAA incorporation into proteins | effect on amount of BMAA misincorporation into proteins (Drosophila fruit flies; listed as L-Serine): reduced by half
